These are literature values, as cited in patent publication US9457321B2, “Furanone containing polymer compound with bacteria-adhesion properties” (Stellenbosch University, priority 2012, dated 2016).

The subject of this data set is P. aeruginosa, S. aureus, E. coli and Enterococci.

In the case of `CC1=C(O)C(=O)C(C)O1` (stereo not shown) [DMHF, 2,5-dimethyl-4-hydroxy-3(2H)-furanone], the antimicrobial efficacy entry is “exceptional antimicrobial efficacy”.
